# Assays:
# [1] = tested on: Antisera (having low T4 cross reactivity); assay: Binding to antisera having low T4 cross reactivity, compared with T3
# TBG = target: T1, TBG (Homo sapiens, UniProt P05543); assay: Displacement of 125I-T4 tracer from TBG:anti-TBG binding reagent (binding strength relative to T4); details: for binding to TBG (in words): I-125 labelled tracer
# T1 construct: from tissue; host or cells: human serum (resin stripped)
# T1 sequence (P05543 21-415): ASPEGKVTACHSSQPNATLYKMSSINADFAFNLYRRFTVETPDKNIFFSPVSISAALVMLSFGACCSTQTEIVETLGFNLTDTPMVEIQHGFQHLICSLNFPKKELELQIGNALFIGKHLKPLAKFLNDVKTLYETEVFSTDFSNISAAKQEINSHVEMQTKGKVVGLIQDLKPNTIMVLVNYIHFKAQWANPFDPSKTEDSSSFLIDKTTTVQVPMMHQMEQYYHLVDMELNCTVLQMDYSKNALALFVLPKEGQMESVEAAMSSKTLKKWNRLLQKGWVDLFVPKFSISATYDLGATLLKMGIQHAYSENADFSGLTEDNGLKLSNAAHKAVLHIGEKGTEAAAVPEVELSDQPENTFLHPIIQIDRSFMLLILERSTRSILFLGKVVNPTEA
# Experimental: (§1) Method for estimation of T4.EDTA binding strength to TBG and prealbumin relative to that of T4
# (§2) Pre-precipitated antiserum (binding reagent) to either TBG or prealbumin is incubated with a serum source of TBG or prealbumin, so that the T4 binding protein is isolated on the binding reagent. Tracer ^125I-T4 is added to the resulting complex and is thus purified. The displacement of the tracer ^125I―T4, by varying concentrations of T4 and T4.EDTA, from the TBG or prealbumin, can then be studied. The results can be used to estimate the differences in binding affinity between T4 and T4.EDTA for the two T4 binding proteins.
# • 2.1 Preparation of ^125I-T4:TBG:anti-TBG binding reagent • 2.1.1. Binding reagent preparation • 15% Donkey anti-sheep) in phosphate • 2% TBG Antiserum) buffer + 0.05% BSA
# Equal quantities of the above solutions are mixed and rotated overnight at 4° so that the final concentrations in the binding reagent are 7.5% donkey anti-sheep, and 1% TBG antiserum. Centrifugation at 900 rpm, decantation and resuspension in fresh buffer are carried out twice to wash the reagent.
# 1 ml of resin stripped human serum and 20 ml of the above binding reagents are mixed for 1 hour at room temperature. Centrifugation, decantation and resuspension in fresh buffer (phosphate + 0.05% BSA) are carried out twice.
# Typically 10 ml ofTBG:anti-TBG binding reagents, 28 ml of phosphate buffer + 0.05% BSA, and 2 ml of ^125I―T4 tracer solution (0.1 µCi high specific activity T4 per ml in phosphate buffer + 0.05% BSA) are mixed for 1 hour at room temperature. […]
# (§3) Thus the percentage bound of the tracer at different T4 and T4.EDTA concentrations, can be determined in the two systems.
# (§4) Tracer percentage bound is plotted against T4 and T4.EDTA concentrations, and from these curves an estimate of the non-specific binding can be made. The data can then be re-calculated, using this blank correction, plotted, and the T4 and T4.EDTA concentrations corresponding to a range of tracer percentage bound values can be read off the curve. […]
# TBPA = target: T2, TBPA (Homo sapiens, UniProt P02766); assay: Displacement of 125I-T4 tracer from TBPA:anti-TBPA binding reagent (binding strength relative to T4); details: binding to TBPA (prealbumin), displacement of 125I-T4, 37°C
# T2 construct: from tissue; host or cells: normal serum
# Experimental: as §1, §2
# This is prepared as for the anti-TBG binding reagent except that equal volumes of 30% donkey anti-rabbit second antibody and 4% TBPA antiserum solutions were mixed to give final concentrations of 15% donkey anti-rabbit, and 2% anti-TBPA. […]
# as §3, §4
# T4 antiserum = assay: Affinity constant with respect to T4 antiserum, relative to T4; format: binding
# [2] = Stability of the tracer compound in water / assay buffer; format: physicochemical; details: on dilution into the assay buffer / contact with water
smiles,measurement,setting,value
"O=C(O)CN(CCN(CC(=O)O)CC(=O)NC(Cc1cc(I)c(Oc2ccc(O)c(I)c2)c(I)c1)C(=O)O)CC(=O)O (centres unmarked) [T3.EDTA, 2-carboxy-6,9-dicarboxymethyl-1 3',5' di-iodo-4' (3""-iodo-4""-hydroxy)phenoxy phenyl 4-oxo-3,6,9-triazaundecan-11-oic acid.]",binding to Antisera compared with T3,[1],"equal, or better, binding than T3 itself"
"O=C(O)CN(CCN(CC(=O)O)CC(=O)NC(Cc1cc(I)c(Oc2cc(I)c(O)c(I)c2)c(I)c1)C(=O)O)CC(=O)O (centres unmarked) [T4.EDTA, 1-{3',5'-di-iodo-4' (3"",5""-di-iodo-4""-Hydroxyphenoxy)phenyl} 2-carboxy-6,9-dicarboxymethyl-4-oxo-3,6,9,-triazaundecan-11-oic acid]",binding to TBG (in words),TBG,no significant tendency to bind to TBG
same,affinity constant as % of the affinity constant of T4,"TBG; binding to TBG, displacement of 125I-T4, 37°C",3.5%
same,affinity constant as % of the affinity constant of T4,TBPA,2.7%
same,affinity constant with respect to T4 antiserum as % of that of T4,T4 antiserum,90.4%
same,stability in water,[2],stable in water
"COC(=O)[C@H](Cc1cc(I)c(Oc2cc(I)c(O)c(I)c2)c(I)c1)NC(C)=O [N-Acetyl-thyroxine-methyl ester, N-acetyl-thyroxine-methyl ester, reference compound]",binding to TBG (in words),TBG,binds appreciably to TBG
same,stability in water,[2],only gives useful assay results within hours of dilution into the assay buffer

# Reference: EP0073865B1, “Derivatives of iodothyronine compounds and their use in an assay for the free iodothyronine compounds” (AMERSHAM INTERNATIONAL plc, priority 1981, dated 1983)
